Assay results from PMC11200585, “Prospects for Prostate Cancer Chemotherapy: Cytotoxic Evaluation and Mechanistic Insights of Quinolinequinones with ADME/PK Profile” (Biomedicines, 2024).

Assays:
Assay type in all cases: cell-based, human
[1] = system: CCRF-CEM; assay: NCI-60 one-dose screen (leukemia); settings: 10 µM single dose, 48 h
Protocol: (§1) The obtained quinolinequinones were submitted to NCI, Bethesda, USA, and, as per standard protocol of NCI, all compounds were evaluated for their antiproliferative activity at single-dose assay (10 µM concentration in DMSO) on a panel of 60 cancer cell lines derived from leukemia, non-small-cell lung, colon, CNS, melanoma, ovarian, renal, prostate, and breast, as per protocol. Tested compounds were added to the microtiter culture plates followed by incubation for 48 h at 37 °C. Sulforhodamine B (SRB), a protein-binding dye, is used for endpoint determination. The percent of the growth of the treated cells was determined in comparison to the untreated control cells and the results of each tested compound were reported. Data from one-dose experiments pertain to the percentage growth at 10 μM [16, 17, 18].

[2] = system: HL-60(TB); assay: NCI-60 one-dose screen (leukemia); settings: 10 µM single dose, 48 h
Protocol: as §1

[3] = system: K-562; assay: NCI-60 one-dose screen (leukemia)
Protocol: as §1

[4] = system: MOLT-4; assay: NCI-60 one-dose screen (leukemia); settings: 10 µM single dose, 48 h
Protocol: as §1

[5] = system: RPMI-8226; assay: NCI-60 one-dose screen (leukemia); settings: 10 µM single dose, 48 h
Protocol: as §1

[6] = system: SR; assay: NCI-60 one-dose screen (leukemia); settings: 10 µM single dose, 48 h
Protocol: as §1

[7] = system: COLO 205; assay: NCI-60 one-dose screen (colon cancer); settings: 10 µM single dose, 48 h
Protocol: as §1

[8] = system: HCC-2998; assay: NCI-60 one-dose screen (colon cancer); settings: 10 µM single dose
Protocol: as §1

[9] = system: HCT-116; assay: NCI-60 one-dose screen (colon cancer); settings: 10 µM single dose, 48 h
Protocol: as §1

[10] = system: HCT-15; assay: NCI-60 one-dose screen (colon cancer); settings: 10 µM single dose, 48 h
Protocol: as §1

[11] = system: HT29; assay: NCI-60 one-dose screen (colon cancer)
Protocol: as §1

[12] = system: KM12; assay: NCI-60 one-dose screen (colon cancer); settings: 10 µM single dose, 48 h
Protocol: as §1

[13] = system: SW-620; assay: NCI-60 one-dose screen (colon cancer); settings: 10 µM single dose, 48 h
Protocol: as §1

[14] = system: LOX IMVI; assay: NCI-60 one-dose screen (melanoma); settings: 10 µM single dose, 48 h
Protocol: as §1

[15] = system: MALME-3M; assay: NCI-60 one-dose screen (melanoma); settings: 10 µM single dose, 48 h
Protocol: as §1

[16] = system: MDA-MB-435; assay: NCI-60 one-dose screen (melanoma); settings: 10 µM single dose, 48 h
Protocol: as §1

[17] = system: SK-MEL-28; assay: NCI-60 one-dose screen (melanoma); settings: 10 µM single dose
Protocol: as §1

[18] = system: SK-MEL-2; assay: NCI-60 one-dose screen (melanoma); settings: 10 µM single dose, 48 h
Protocol: as §1

[19] = system: SK-MEL-5; assay: NCI-60 one-dose screen (melanoma); settings: 10 µM single dose, 48 h
Protocol: as §1

[20] = system: UACC-257; assay: NCI-60 one-dose screen (melanoma); settings: 10 µM single dose, 48 h
Protocol: as §1

[21] = system: UACC-62; assay: NCI-60 one-dose screen (melanoma); settings: 10 µM single dose, 48 h
Protocol: as §1

[22] = system: CCRF-CEM; assay: NCI-60 five-dose assay (leukemia); settings: 48 h, SRB
[23] = system: HL-60(TB); assay: NCI-60 five-dose assay (leukemia); settings: 48 h, SRB
[24] = system: RPMI-8226; assay: NCI-60 five-dose assay (leukemia); settings: 48 h, SRB
[25] = system: NCI-H226; assay: NCI-60 five-dose assay (non-small cell lung cancer); settings: 48 h, SRB
[26] = system: NCI-H322M; assay: as above; settings: 48 h, SRB
[27] = system: COLO 205; assay: NCI-60 five-dose assay (colon cancer); settings: 48 h, SRB
[28] = system: SF-295; assay: NCI-60 five-dose assay (CNS cancer); settings: 48 h, SRB
[29] = system: LOX IMVI; assay: NCI-60 five-dose assay (melanoma); settings: 48 h, SRB
[30] = system: MDA-MB-435; assay: NCI-60 five-dose assay (melanoma); settings: 48 h, SRB
[31] = system: OVCAR-3; assay: NCI-60 five-dose assay (ovarian cancer); settings: 48 h, SRB
[32] = system: A498; assay: NCI-60 five-dose assay (renal cancer); settings: 48 h, SRB
[33] = system: CAKI-1; assay: NCI-60 five-dose assay (renal cancer); settings: 48 h, SRB
[34] = system: RXF 393; assay: NCI-60 five-dose assay (renal cancer); settings: 48 h, SRB
[35] = system: PC-3; assay: NCI-60 five-dose assay (prostate cancer); settings: 48 h, SRB
[36] = system: DU-145; assay: NCI-60 five-dose assay (prostate cancer); settings: 48 h, SRB
[37] = system: BT-549; assay: NCI-60 five-dose assay (breast cancer); settings: 48 h, SRB
[38] = system: MDA-MB-468; assay: NCI-60 five-dose assay (breast cancer); settings: 48 h, SRB
[39] = Homo sapiens, read-out: LC50 (the source's name)

`CCOc1ccccc1NC1=C(Cl)C(=O)c2nc(C)ccc2C1=O` [AQQ2] was tested. Which “GP (growth percentage)” value [1] did it give?
Its value is −6.33%.

And the “GP (growth percentage)” value [2]?
Its value is −36.75%.

What about the “GP (growth percentage)” value ([3]; 10 µM single dose, 48 h) of the same molecule?
The value was 1.26%.

What about the inhibition at 10 µM ([3]; Homo sapiens, K562, 10 µM single dose) of the same molecule?
The inhibition at 10 µM was 98.7%.

What about the “GP (growth percentage)” value [4] of the same molecule?
Its value is −24.89%.

What about the “GP (growth percentage)” value [5] of the same molecule?
The value was −35.12%.

What about the “GP (growth percentage)” value [6] of the same molecule?
The value was −12.75%.

What about the “GP (growth percentage)” value [7] of the same molecule?
Its value is 99.24%.

What about the “GP (growth percentage)” value ([8]; 48 h) of the same molecule?
The value was 20.35%.

And the inhibition at 10 µM ([8]; Homo sapiens)?
The inhibition at 10 µM was 79.7%.

And the “GP (growth percentage)” value [9]?
Its value is −79.44%.

What about the “GP (growth percentage)” value [10] of the same molecule?
The value was −76.56%.

And the “GP (growth percentage)” value ([11]; 10 µM single dose, 48 h)?
Its value is 19.96%.

And the inhibition at 10 µM ([11]; Homo sapiens, HT-29, 10 µM single dose)?
The inhibition at 10 µM was 80%.

What about the “GP (growth percentage)” value [12] of the same molecule?
Its value is 60.77%.

And the “GP (growth percentage)” value [13]?
The value was −66.65%.

What about the “GP (growth percentage)” value [14] of the same molecule?
Its value is −82.20%.

And the “GP (growth percentage)” value [15]?
Its value is −71.39%.

What about the “GP (growth percentage)” value [16] of the same molecule?
Its value is −85.72%.

What about the “GP (growth percentage)” value ([17]; 48 h) of the same molecule?
Its value is 14.55%.

What about the inhibition at 10 µM ([17]; Homo sapiens) of the same molecule?
Its inhibition at 10 µM is 85.5%.

What about the “GP (growth percentage)” value [18] of the same molecule?
The value was −15.72%.

And the “GP (growth percentage)” value [19]?
Its value is −97.76%.

What about the “GP (growth percentage)” value [20] of the same molecule?
The value was −88.33%.

And the “GP (growth percentage)” value [21]?
Its value is −29.14%.

And the TGI [22]?
The TGI was >100000 nM.

What about the GI50 ([22]; Homo sapiens) of the same molecule?
The GI50 was 1410 nM.

And the LC50 (concentration killing 50% of cells) ([22]; Homo sapiens)?
Its LC50 (concentration killing 50% of cells) is > 100000 nM.

What about the TGI [23] of the same molecule?
Its TGI is 2920 nM.

What about the GI50 ([23]; Homo sapiens) of the same molecule?
The GI50 was 1030 nM.

What about the CC50 [23, 39] of the same molecule?
The CC50 was 8290 nM.

What about the TGI [24] of the same molecule?
Its TGI is 4710 nM.

What about the GI50 ([24]; Homo sapiens) of the same molecule?
Its GI50 is 1200 nM.

What about the CC50 [24, 39] of the same molecule?
Its CC50 is > 100000 nM.

And the TGI [25]?
The TGI was 4240 nM.

And the GI50 ([25]; Homo sapiens)?
Its GI50 is 1780 nM.

And the LC50 ([25]; Homo sapiens)?
The LC50 was 16200 nM.

What about the TGI [26] of the same molecule?
Its TGI is 7910 nM.

What about the GI50 ([26]; Homo sapiens) of the same molecule?
The GI50 was 2220 nM.

And the CC50 [26, 39]?
The CC50 was 29700 nM.

What about the TGI [27] of the same molecule?
The TGI was 3660 nM.

What about the GI50 ([27]; Homo sapiens) of the same molecule?
The GI50 was 1730 nM.

And the CC50 [27, 39]?
Its CC50 is 7740 nM.

And the TGI [28]?
Its TGI is 4200 nM.

What about the GI50 ([28]; Homo sapiens) of the same molecule?
Its GI50 is 2030 nM.

What about the LC50 (50% lethal concentration) ([28]; Homo sapiens) of the same molecule?
Its LC50 (50% lethal concentration) is 8700 nM.

What about the TGI [29] of the same molecule?
Its TGI is 2220 nM.

What about the GI50 ([29]; Homo sapiens) of the same molecule?
Its GI50 is 839 nM.

What about the LC50 (concentration killing 50% of cells) ([29]; Homo sapiens) of the same molecule?
The LC50 (concentration killing 50% of cells) was 5330 nM.

What about the TGI [30] of the same molecule?
The TGI was 671 nM.

And the GI50 ([30]; Homo sapiens)?
The GI50 was 266 nM.

And the CC50 [30, 39]?
The CC50 was 2450 nM.

And the TGI [31]?
Its TGI is 2030 nM.

And the GI50 ([31]; Homo sapiens)?
The GI50 was 759 nM.

What about the CC50 [31, 39] of the same molecule?
The CC50 was 4540 nM.

What about the TGI [32] of the same molecule?
Its TGI is 10800 nM.

What about the GI50 ([32]; Homo sapiens) of the same molecule?
Its GI50 is 2650 nM.

What about the LC50 ([32]; Homo sapiens) of the same molecule?
Its LC50 is 34800 nM.

And the TGI [33]?
Its TGI is 2840 nM.

And the GI50 ([33]; Homo sapiens)?
Its GI50 is 1450 nM.

What about the LC50 (lethal concentration, 50% net cell kill) ([33]; Homo sapiens) of the same molecule?
Its LC50 (lethal concentration, 50% net cell kill) is 5570 nM.

And the TGI [34]?
The TGI was 2780 nM.

What about the GI50 ([34]; Homo sapiens) of the same molecule?
Its GI50 is 1440 nM.

And the LC50 ([34]; Homo sapiens)?
Its LC50 is 5390 nM.

What about the TGI [35] of the same molecule?
The TGI was 2770 nM.

What about the GI50 ([35]; Homo sapiens) of the same molecule?
Its GI50 is 1260 nM.

And the CC50 [35, 39]?
Its CC50 is 6110 nM.

And the TGI [36]?
Its TGI is 2990 nM.

What about the GI50 ([36]; Homo sapiens) of the same molecule?
The GI50 was 1630 nM.

And the CC50 [36, 39]?
The CC50 was 5490 nM.

And the TGI [37]?
Its TGI is 2880 nM.

What about the GI50 ([37]; Homo sapiens) of the same molecule?
The GI50 was 1520 nM.

What about the LC50 (concentration giving 50% net cell kill) ([37]; Homo sapiens) of the same molecule?
The LC50 (concentration giving 50% net cell kill) was 5460 nM.

What about the TGI [38] of the same molecule?
Its TGI is 2880 nM.

And the GI50 ([38]; Homo sapiens)?
Its GI50 is 1450 nM.

What about the LC50 ([38]; Homo sapiens) of the same molecule?
The LC50 was 5710 nM.
